From patent US7132287B2, “Method for neural stem cell differentiation using 5HT-1A agonists” (Psychiatric Genomics, Inc., priority 2001, dated 2006)
Where “and” joins values, the source holds several entries; their conditions need not be identical. Identical values can stand only once.

What was measured:
5HT1A receptor [1] = target: T1, 5HT1A receptor (Homo sapiens, UniProt P08908); details: cited from earlier work
T1 sequence (P08908 1-422): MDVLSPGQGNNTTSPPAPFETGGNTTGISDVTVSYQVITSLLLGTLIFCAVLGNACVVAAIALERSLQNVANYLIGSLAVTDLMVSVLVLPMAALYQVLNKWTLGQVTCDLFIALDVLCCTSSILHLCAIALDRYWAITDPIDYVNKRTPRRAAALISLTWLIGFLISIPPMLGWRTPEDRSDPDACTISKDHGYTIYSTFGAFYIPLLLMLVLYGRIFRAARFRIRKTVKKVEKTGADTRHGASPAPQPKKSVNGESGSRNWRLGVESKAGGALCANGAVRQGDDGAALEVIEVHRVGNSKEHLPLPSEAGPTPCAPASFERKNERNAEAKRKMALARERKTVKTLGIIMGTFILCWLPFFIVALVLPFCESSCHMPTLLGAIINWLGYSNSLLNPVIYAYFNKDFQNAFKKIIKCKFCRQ

[2] = test system: cortical neural stem cells; experiment: Neuronal differentiation of cortical neural stem cells (β tubulin III / TuJ-1 immunofluorescence); format: cell-based, rat; details: 6 days
Excerpt: Isolation of cortical and striatal stem cells. Timed pregnant Sprague Dawley rats obtained from Taconic at embryonic age E14-E15 were sacrificed as described above and the uterus removed and placed in ice cold PBS in a 10 cm petridish. After rinsing the uterus in PBS, embryos were removed from the uterus, rinsed in PBS and collected in cold HBSS (buffered with HEPES and sodium bicarbonate) in a 10 cm petridish and placed on ice.
The cortex and striatum was dissected under a microscope and collected in a 15 ml tube of HBSS, on ice. Removal of meninges is not possible at this age, and no attempt was made to do so. If the dissected tissue was in large enough chunks and settle to the bottom of the tube, no centrifugation was performed. Alternatively, the tube was centrifuged at 1000 rpm for 5 minutes to pellet the tissue. Following centrifugation, the 15 ml tube containing the tissue was sprayed with 70% ethanol and taken into the sterile hood.
The HBSS was aspirated and replaced with 10 ml of DMEM/F12. The tissue was collected at the bottom of the tube by gravity or centrifugation, medium was aspirated, and 1 ml of DMEM/F12 was to the tissue. Cells were dissociated by trituration as described above, followed by addition of 5 ml of DMEM/F12 and a second round of trituration. […] The tubes were placed standing 5–10 minutes in the hood to allow larger particles and meninges to settle. While the meninges were settling, a cell count was made. 10 μl of the cell suspension is diluted with trypan blue and counted in a hemocytometer. Cells were counted in the four outer chambers with the larger squares, and cell count calculated assuming that the volume enclosed in each of the chambers was […].
Plating, expansion and passaging of cortical and striatal stem cells A generous amount of the triturated cell suspension was left in the original 15 ml tube to avoid fibroblast contamination in cultures. About 4–5 ml of the 6 ml of cells suspension was used for plating. Cells were plated at a concentration of approximately 1×10^6 per 10 cm dish. This culture is designated P0 (passage 0).
Following plating cells were expanded for about 3–4 days. The cultures were never permitted to reach more than 70% confluency. Cultures were then passaged as follows: 5 ml of HBSS was added to each 10 cm dish and the cells incubated at 37° C. for 15–45 minutes, or until sufficient numbers of the stem cells were rounded up. It is not expected that all cells in the culture will round up as there are several cell types in the culture at P0. The pH of the HBSS should be neutral at all times during this incubation. Cells were then removed from the dish by pipetting with a 5 ml pipette, or by scraping with a policeman, collected in a 15 or 50 ml conical tube, and centrifuged at 1000 g for 5 minutes. Cells were gently re-suspended in medium, counted, and plated at a density of about 1×10^6 per 10 cm dish.
(§1) Drug treatments. Stem cells obtained as described above were treated with drugs and subjected to differentiation protocols in the second passage. Cells were plated at a density of 1×10^4 cells per well of a 12-well petridish (Falcon).
Drug treatments were started on the next day. […] The WAY 100635 antagonist compound was used simultaneously with buspirone or serotonin in the blocking experiments. Positive and negative control cultures were those treated with BDNF and FGF alone, respectively.
Cells were treated with the designated concentrations of drugs or combinations thereof, daily, and were fed every alternate day with fresh medium. Experiments were maintained for about 6–10 days in most cases.

[3] = test system: cerebellar neural stem cells
Procedure: Cells were treated with the drugs as shown in the presence or absence of the 5HT 1A antagonist WAY 100635 (10 nM), or vasoactive intestinal peptide
Drug treatments were started on the next day. Optimal concentrations were as follows: bFGF: 10 ng/ml; BDNF (R&D Systems, Minneapolis, Minn.): 20 ng/ml; buspirone (Sigma): 100–1000 nM; or Serotonin (Sigma): 5–10 μM; buspirone or serotonin and the 5HT1A antagonist WAY100635 (Sigma): 10 nM. The WAY 100635 antagonist compound was used simultaneously with buspirone or serotonin in the blocking experiments. Positive and negative control cultures were those treated with BDNF and FGF alone, respectively.
Untreated cells were used as a negative control.

adult rat hippocampus = details: Mahlberg et al., preliminary data; cited from earlier work
cerebellar stem cells = experiment: Neuronal differentiation of cerebellar stem cells (TuJ1 positive cells); format: cell-based, rat; details: FIG. 2, lane 5, serotonin 5 μM; untreated control less than 20%
Excerpt: Isolation and quantitation of cerebellar stem cells. Neural stem cells were isolated from rat embryos (obtained from Taconic) at the 19th day of gestation (E19). The rats were sacrificed by inhalation of excess carbon dioxide. The abdomen of the rat was cleaned with 70% ethanol and the uterus was removed quickly and aseptically on the bench top. The uterus was placed in ice cold PBS (GIBCO Cat. # 20012-027) in a 200-ml beaker.
The cerebellar tissue was dissected under a microscope according to the following procedure and collected in a 15-ml tube containing HBSS on ice. The dissection should be completed in 1–2 hours (optimally) and the pH of the HBSS should remain neutral. First, the neck of the embryos was severed towards the bottom and the heads were collected in cold PBS. Next, the skin and scalp was removed from neck and head of the embryo. The brain, including the cerebral cortex, midbrain, cerebellum and some of the spinal cord, was removed by dissection under a microscope and transfered into a clean dish with fresh, cold PBS. The cerebellar region was dissected and cleaned of extraneous tissue, including removal of the meninges, and transferred into cold HBSS in a clean 15 ml tube.
The tube containing the cerebellar tissue was centrifuged at 1,000 RPM for 2 min at 15 C., followed by slow, careful aspiration of the HBSS supernatant (care should be taken to avoid aspirating tissue). (It is best to limit the centrifugation steps as much as possible.) About 1 to 3 ml of DMEM/F12/N2 medium (see below) was immediately added to the remaining tissue; the volume of medium depends on the quantity of the dissected tissue. The tissue was gently triturated about 8 to 10 times using a P-1000 Pipetteman until the tissue was dissociated (as evidenced by cloudy solution), then the tube was incubated in the hood for 5 minutes at room temperature to permit settlement of small particles of undissociated tissue. The supernatant was then transferred into a fresh tube, taking care to avoid the smaller particles of tissue that remained at the bottom of the tube.
Plating and expansion of cerebellar stem cells. The triturated cell suspension of E19 rat cerebellum was seeded into pre-coated 10 cm dishes at 2×10^6 cells per dish. This is denoted as the P0 culture (passage 0). The cells were grown in 5 ml of DMEM/F12/N2 supplemented with 25 mg/L insulin and 10 ng/ml bFGF at 37 C, 5% CO2 and 90% humidity.
Cells were fed daily with 10 ng/ml bFGF. The medium was changed one day after the cells were seeded, and thereafter every other day. On about day 4 of the culture, or when cells reached 70% confluence, the culture was passaged (see “Passage of cerebellar stem cells” below) and seeded into 10 cm dishes at an initial density of 2×10^6 cells per dish. This is denoted as the P1 culture (passage 1). The passaged cells at P1 were grown in DMEM/F12/N2 medium supplemented with 25 mg/L insulin and 10 ng/ml bFGF. The medium was changed every other day.
After two days of culture, some cells were passaged into a P2 culture, and some were seeded in 12-well tissue culture plates for experimental use. One ml of DMEM/F12/N2 medium was used per well of a 12-well plate at 2×10^4 cells per well. Experimental treatments were initiated the day after passage.
as §1
Drug treatments were started on the next day. […] The WAY 100635 antagonist compound was used simultaneously with buspirone or serotonin in the blocking experiments.

[4] = target: T2, 5-HT1A receptors over dopamine D2 receptors (Homo sapiens, UniProt P08908); details: compared to buspirone; cited from earlier work
T2 sequence (P08908 1-422): T1 sequence (P08908 1-422)

5HT1A receptor [5] = target: T1, 5HT1A receptor; details: cited from earlier work; remark: listed apart in the source

Molecule: COc1ccc2[nH]cc(CCN(C)C)c2c1 [5-methoxy-N,N-dimethyltryptamine]
- affinity for the 5HT1A receptor (5HT1A receptor [1]): high affinity

Molecule: bFGF: recombinant human basic fibroblast growth factor (R&D Systems), mitogenic growth factor; negative control
- Total No. of Cells ([2]; 10 ng/ml bFGF): 7330 and 10210
- No. Fluorescent Cells ([2]; 10 ng/ml bFGF, TuJ-1 staining): 33 and 65

Molecule: COc1ccccc1N1CCN(CCN(C(=O)C2CCCCC2)c2ccccn2)CC1 [WAY100635, N-[2-[4-(2-Methoxyphenyl)-1-piperazinyl]ethyl]-N-2-pyridinylcyclohexanecarboxamide]
- effect of antagonist on buspirone-induced neuronal differentiation ([3]; WAY100635 10 nM added simultaneously with buspirone 500 nM, FIG. 2 lane 4): inhibited neuronal differentiation
- effect of antagonist on serotonin-induced neuronal differentiation ([3]; WAY100635 10 nM added simultaneously with serotonin 5 μM, FIG. 2 lane 6): inhibited neuronal differentiation
- effect of antagonist on vasoactive intestinal peptide-induced neuronal differentiation ([3]; WAY100635 10 nM added to VIP-treated cells, FIG. 2 lane 8): did not prevent or inhibit neuronal differentiation

Molecule: CNCCC(Oc1ccc(C(F)(F)F)cc1)c1ccccc1 (centres unmarked) [fluoxetine]
- neurogenesis in adult rat hippocampus (adult rat hippocampus): increases neurogenesis

Molecule: NCCc1c[nH]c2ccc(O)cc12 [serotonin, 5-hydroxytryptamine]
- differentiation of neurons (cerebellar stem cells): 60%

Molecule: CC1(C)CC(=O)N(CCCCN2CCN(c3ncccn3)CC2)C(=O)C1 [gepirone]
- selectivity for 5-HT1A receptors over dopamine D2 receptors [4]: much greater selectivity

Molecule: CCCN(CCC)[C@@H]1CCc2ccc3[nH]c(C#N)cc3c2C1 [U-92016A]
- intrinsic activity as 5-HT1A receptor agonist (5HT1A receptor [5]): exceptionally high degree of intrinsic activity

B1: BDNF: brain-derived neurotrophic factor (R&D Systems), a known neuronal differentiation factor; positive control (protein, UniProt P23560 19-247, looked up)
Neurotrophic factor BDNF …: APMKEANIRGQGGLAYPGVRTHGTLESVNGPKAGSRGLTSLADTFEHVIEELLDEDQKVRPNEENNKDADLYTSRVMLSSQVPLEPPLLFLLEEYKNYLDAANMSMRVRRHSDPARRGELSVCDSISEWVTAADKKTAVDMSGGTVTVLEKVPVSKGQLKQYFYETKCNPMGYTKEGCRGIDKRHWNSQCRTTQSYVRALTMDSKKRIGWRFIRIDTSCVCTLTIKRGR
- Total No. of Cells ([2]; 20 ng/ml BDNF): 624 and 1006
